From patent US20250135012A1, “DENDRIMER CONJUGATES OF SMALL MOLECULE BIOLOGICS FOR INTRACELLULAR DELIVERY” (The Johns Hopkins University, priority 2021, published 2025) come the findings set out here.

In one data set the test system is p44/42 ERK. In words: Choroid total ERK and phospho-p44/42 ERK ELISA. The class given is in vivo, Brown Norway rats. Here is the method:
(§1) In brief, 500 μL of T-Per supplemented with PHOSSTOP® and proteinase inhibitor cocktail was added to tubes containing dissected choroid. A scoop of 1.6 mm steel homogenization beads was added to each sample and then placed in […]® LT (Qiagen) at an oscillation frequency of 50/s for 15 minutes. For qPCR, 200 μL of TRIZOL® was added to tubes containing choroid and a scoop of 1.6 mm steel homogenization beads was added. The samples were placed in […]® LT at an oscillation frequency of 50/s for 15 minutes.
(§2) To evaluate activation of FAK and ERK pathways, eyes were enucleated at set time points and the choroidal tissue dissected out. Tissues were submerged in a mixture of T-per, proteinase inhibitor, and PhosStop with stainless steel homogenization beads and homogenized to produce protein extracts. Total FAK, total ERK, p-FAK (Y397), and p-44/42 ERK ELISA kits were used to quantify the amount of total and phosphorylated proteins in FAK and ERK pathways. […] However, the level of total FAK protein in ALG-1001 treated animals was elevated at day 14.

Data set [1] has as its system FAK. As to the kind of experiment: Choroid total FAK and phospho-FAK (Y397) ELISA. The class given is in vivo, Brown Norway rats. Here is the method:
as §1
For protein extracted from tissues, total FAK and FAK (Phospho) [pY397] ELISA kits (Invitrogen) were used to quantify the level of protein expression and the measured protein expression was normalized to the total protein amount of each sample as determined from BCA assays.
as §2

The next data set relates to TNFα. In words: TNFα expression in LPS stimulated RAW264.7 cells (qPCR). The class given is cell-based, murine. To be noted: only at the highest dose. Here is the method: (§3) RAW264.7 cells were seeded at a density of 1×10^5 cells per well in 12-well plates 48 h before treatment. Cells were incubated with D-ALG1001 and ALG-1001 for 24 h, the treatment media was aspirated then LPS at a concentration of 10,000 Endotoxin Units/mL was added to stimulate inflammatory response. Samples were collected 3 h after LPS stimulation for qPCR analysis.
(§4) 100 μL of chloroform was added to the Trizol suspension and the aqueous phase was separated with a centrifuge at 10K RPM at 4° C. for 15 minutes. 400 μL of 2-propanol was added to the aqueous solution and spun again to pellet the RNA. The RNA was washed with 70% ethanol solution, pelleted again, and re-suspended in DEPC (ultrapure treated to inactivated enzymes) water.
(§5) To convert RNA to complementary DNA, 2 μg of RNA was converted using a High-Capacity cDNA Reverse Transcription Kit (Applied Biosystems, Foster City, CA). Samples were analyzed using STEPONE PLUS® real-time PCR system (Applied Biosystems) with SYBR Green reagent (ThermoFisher Scientific). Relative expression was quantified with ΔΔCt calculations normalized to controls. Primers for GAPDH was obtained from Bio-Rad Laboratories (Hercules, CA). Primers were purchased from Integrated DNA Technologies (Coralville, IA). Primers for TNFα were: […]
In general terms: Real-time PCR tracks product formation cycle by cycle.

Data set [2] relates to FAK. As to the kind of experiment: Western blot, FAK and phospho-FAK in VEGF stimulated HUVEC. The class given is cell-based, human. Here is the method: (§6) Cells were treated with D-ALG1001 and ALG-1001 for 24 h before activation with VEGF for 5 minutes. […] Cells were lysed with TRIZOL® and processed as previously described for qPCR analysis.
(§7) Concentration of protein was determined with the BCA protein assay kit (Thermo Scientific, Rockford, IL). Equal amount of protein was denatured and resolved on 4-15% TGX gels (Bio-Rad, Hercules, CA). Gels were transferred to nitrocellulose membranes, blocked with 3% Bovine Serum Albumin (“BSA”) at RT for 1 h, and probed for GAPDH, FAK, pFAK, MAPK, and pMAPK at 4° C. overnight. Membranes were washed thrice before incubation with HRP-conjugated secondary antibodies followed by incubation with chemiluminescent substrate for visualization.
(§8) To elucidate the mechanism through which D-ALG and ALG-1001 influence angiogenic function, cells were pre-treated with D-ALG and ALG-1001 for 24 h. The cells were then stimulated with a high dose of exogenous VEGF for 5 min after which the samples were collected for western blotting. The samples were probed for expression of total FAK, phospho-FAK (Y397), ERK1/2, phospho-ERK1/2, and Cyclophilin B (CycB) with CycB acting as the internal control.
On the technique in general: A western blot detects proteins with antibodies after separation by electrophoresis.

A further data set concerns IL1β. As to the kind of experiment: IL1β expression in LPS stimulated RAW264.7 cells (qPCR). The class given is cell-based, murine. To be noted: 24 h pretreatment, LPS 3 h. Here is the method:
as §3, §4, §5

The target of another data set is proteinase K (Parengyodontium album, UniProt P06873). As to the kind of experiment: in vitro. Particulars: proteinase K (isolated protease).
Another data set relates to ERK1/2. As to the kind of experiment: Western blot, ERK1/2 phosphorylation in VEGF stimulated HUVEC. To be noted: 1 mM on a peptide basis, vs VEGF stimulated controls. The class given is cell-based, human. Here is the method:
as §6, §7, §8

In another data set the test system is VEGF-A. In words: Choroid VEGF-A qPCR. The class given is in vivo, Brown Norway rats. Particulars: 7 and 14 days. Here is the method:
as §1, §4
To convert RNA to complementary DNA, 2 μg of RNA was converted using a High-Capacity cDNA Reverse Transcription Kit (Applied Biosystems, Foster City, CA). Samples were analyzed using STEPONE PLUS® real-time PCR system (Applied Biosystems) with SYBR Green reagent (ThermoFisher Scientific). Relative expression was quantified with ΔΔCt calculations normalized to controls. Primers for GAPDH was obtained from Bio-Rad Laboratories (Hercules, CA). Primers were purchased from Integrated DNA Technologies (Coralville, IA). […]

A further data set relates to CNV area. As to the kind of experiment: Biodistribution after systemic administration, laser CNV model. The class given is in vivo, Brown Norway rats. To be noted: systemic (intraperitoneal) administration, 150 μg. Here is the method:
For biodistribution studies, a dose of Cy5-D-ALG1001-Cy3 and ALG-1001-Cy3 at 150 μg/100 μL was administered to each animal intraperitoneally on the day of CNV induction (Day 0). Animals were sacrificed at 1-, 2-, 3-, and 4-day time points and enucleated.
After fixation, the posterior segment of the eye was dissected out and the retina separated from the choroid. Tissues stained with FITC-labeled isolectin (GS IB4) (Life Technologies, Eugene, OR) for blood vessels and monocytes. Eyes were mounted by introducing four radial relaxation cuts. Samples for biodistribution were imaged under a confocal 710 microscope (Carl Zeiss, Oberkochen, Germany). Samples for CNV quantification were imaged with an Axiovert phase contrast microscope. All images were processed with ImageJ.
Fluorescently labeled Cy3-ALG-1001 peptide and dual labeled Cy5-dendrimer-ALG-Cy3 were systemically injected on day 0 (same day as CNV induction) and choroidal tissues were collected at set time points. Confocal microscopy was used to monitor the presence of ALG-1001 peptide (Cy3), dendrimer carrier (Cy5), CNV formation (Isolectin), and macrophages (Iba1). […] In comparison, D-ALG was able to not only reach the CNV area within 24 h after systemic injection but also remain in the target area up to 4 days post administration from the co-localized presence of both Cy5 and Cy3 signals.

Non-standard residues stand in square brackets, D forms with d. Residues, ends and D or L forms follow the SMILES beside them. Cya = N[C@@H](CS(=O)(=O)O)C(=O)O

Sequence of proteinase K (P06873 106-384): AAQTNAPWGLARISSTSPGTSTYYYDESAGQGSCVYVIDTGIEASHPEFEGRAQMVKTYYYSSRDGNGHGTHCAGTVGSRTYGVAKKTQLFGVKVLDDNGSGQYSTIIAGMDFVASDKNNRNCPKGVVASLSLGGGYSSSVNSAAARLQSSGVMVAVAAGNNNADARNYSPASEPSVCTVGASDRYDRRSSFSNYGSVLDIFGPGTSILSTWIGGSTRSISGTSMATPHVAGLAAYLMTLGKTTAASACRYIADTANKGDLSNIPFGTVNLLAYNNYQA
Method for proteinase K: Proteinase K stock solution was purchased from ThermoFisher and used as is. […] The mixture was incubated at 37° C. and at set time points, 100 μL of the mixture was removed and analyzed through HPLC.

Take `C[C@@H](O)[C@H](NC(=O)[C@H](CS(=O)(=O)O)NC(=O)CNC(=O)[C@H](CCCNC(=N)N)NC(=O)CN)C(=O)N1CCC[C@H]1C(=O)O` [ALG-1001] (H-GRG[Cya]TP-OH; N-terminus and C-terminus assumed): the “total ERK” value in the data set with p44/42 ERK (day 7) is given as “remained relatively constant”; in the data set on p44/42 ERK (day 14, vs untreated animals), “slight reduction”. In addition, in the data set with p44/42 ERK (rat, in vivo), the “phospho-p44/42 ERK” value is listed as “decrease of p44/42 ERK production”. For the same molecule, the p-FAK protein entry in the data set on FAK [1] (7 and 14 days) was “reduction of p-FAK”. In the data set with FAK [1] (day 14), the “total FAK protein” value was “elevated”. Also, in the data set on TNFα, the “reduction of TNFα expression” value was 20%. Moreover, the “reduction of phospho-FAK” value in the data set with FAK [2] (1 mM on a peptide basis, vs VEGF stimulated controls) worked out at 20%. Also, in the data set with FAK [2] (vs untreated VEGF stimulated controls), the “total FAK and phospho-FAK expression” value is “lower levels of total FAK and phosphor-FAK”. The “impact on IL1β production” value with IL1β was “no impact on IL1β production”. The metabolised at 0.5 h, 2 mg/mL at proteinase K is roughly 50%. Besides, the metabolised at […], 2 mg/mL on proteinase K is roughly 90%. In the data set on ERK1/2, the “reduction of phospho-ERK1/2” value is roughly 60%. The “VEGF-A production (qPCR)” value in the data set on VEGF-A is reported as “lower VEGF-A production at 14 days only”. For the same molecule, in the data set on CNV area, the “time remaining in the CNV target area” value is on record as “up to 2 days”.
